The test system of one series is C57BL/6 mice. In words: Mouse open field experiment. The note with it: for Central area dwell time (s) Mean ± SEM / Central area traveling distance percentage (%) Mean ± SEM / Total moving distance (cm) Mean ± SEM: 30 mg/kg i.p., 1 hour before, 30-minute test. It is filed as in vivo. The method, then:
Experiment objectives: to observe the anti-anxiety effect of the test compound on the mice by open field experiment.
Experimental animals: male C57BL/6 mice, 10 weeks old, purchased from Beijing Huafukang Biotechnology Co., Ltd.
Animal rearing: The temperature in the animal room was maintained at 20-25° C., the humidity was maintained at 40-70%, and the photoperiod was 12 hours light and 12 hours dark. During feeding, the mice were housed in standard mouse cages, with colored labels on each cage clearly indicating the item number, and the basic information such as the responsible person, group, animal number and animal gender. All animals were given free access to pure water and standard certified rodent feed. Before the start of the experiment, the experimental animals were adapted to the feeding environment for at least one week.
The compound to be tested, intraperitoneally administered, 30 mg/kg.
Experimental principle: Based on the instincts of rodents tending to avoid light and fear of exploring open fields. When the experimental animals were first placed in the open field, the central area was a potential threat to the animals, while the peripheral area was relatively safe, and rats and mice were more likely to move along the perimeter of the field. Therefore, if the animal is of high anxiety level, it tends to stay in the peripheral area. Conversely, the number and time of exploration in the central area will increase.
Experimental grouping and administration: Experimental animals were randomly divided into 5 groups as follows:
During the 30-minute test period, the total distance traveled by the experimental animals, the central area dwell time, and the percentage of the central area travel distance will be detected and recorded.

For a further series, the target named is hERG potassium channel (Homo sapiens (Human), UniProt Q12809). Description: hERG potassium channel toxicity assay (hERG patch clamp). In kind it is cell-based. The method, then: Experimental method: hERG patch clamp detection method
hERG potassium channel, sequence (Q12809 whole entry): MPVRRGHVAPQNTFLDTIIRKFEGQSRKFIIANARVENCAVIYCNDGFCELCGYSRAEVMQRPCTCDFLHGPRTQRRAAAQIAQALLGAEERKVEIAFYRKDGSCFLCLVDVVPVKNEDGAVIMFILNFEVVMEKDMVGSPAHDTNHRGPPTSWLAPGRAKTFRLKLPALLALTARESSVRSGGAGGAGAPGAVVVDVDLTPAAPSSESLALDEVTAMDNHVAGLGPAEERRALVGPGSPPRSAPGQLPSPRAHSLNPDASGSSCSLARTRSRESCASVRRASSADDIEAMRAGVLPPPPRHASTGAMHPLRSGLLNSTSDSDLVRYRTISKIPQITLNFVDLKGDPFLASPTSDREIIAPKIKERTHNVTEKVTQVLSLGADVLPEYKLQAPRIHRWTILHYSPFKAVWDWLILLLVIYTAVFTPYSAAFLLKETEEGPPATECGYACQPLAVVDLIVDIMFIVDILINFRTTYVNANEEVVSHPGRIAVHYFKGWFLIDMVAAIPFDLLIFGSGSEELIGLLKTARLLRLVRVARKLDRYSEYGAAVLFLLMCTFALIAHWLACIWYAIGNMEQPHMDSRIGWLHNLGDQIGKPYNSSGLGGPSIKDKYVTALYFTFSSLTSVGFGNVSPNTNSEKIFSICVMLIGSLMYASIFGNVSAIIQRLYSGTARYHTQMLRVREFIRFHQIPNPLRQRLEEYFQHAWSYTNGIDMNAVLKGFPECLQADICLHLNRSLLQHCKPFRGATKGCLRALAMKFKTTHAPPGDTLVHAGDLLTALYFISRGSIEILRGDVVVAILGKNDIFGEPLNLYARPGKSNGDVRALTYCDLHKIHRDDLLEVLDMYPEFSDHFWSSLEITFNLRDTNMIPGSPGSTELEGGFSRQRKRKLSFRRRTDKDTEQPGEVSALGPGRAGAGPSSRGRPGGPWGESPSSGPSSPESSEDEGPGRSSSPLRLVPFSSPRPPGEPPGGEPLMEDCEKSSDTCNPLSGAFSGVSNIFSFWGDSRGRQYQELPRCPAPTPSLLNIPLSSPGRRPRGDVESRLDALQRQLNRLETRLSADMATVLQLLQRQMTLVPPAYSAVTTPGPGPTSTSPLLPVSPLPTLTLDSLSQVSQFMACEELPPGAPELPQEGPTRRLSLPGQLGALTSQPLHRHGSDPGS
Experimental procedure: Compound preparation: the stock solution of a compound was diluted with extracellular fluid, 2 μL of the compound stock solution was added to 998 μL extracellular fluid, and then serially diluted 5 times in an extracellular fluid containing 0.2% DMSO to obtain the final concentration to be tested.
In general terms: hERG is a cardiac potassium channel; its block is linked to QT prolongation.

The target in the next series is mGluR2 (Homo sapiens (Human), UniProt Q14416). In words: In vitro activity test for mGluR2 (HDB Fluo-8 calcium fluorescence, HEK/mGluR2 cell line). It is filed as cell-based. From the text: Experimental materials: HEK/mGluR2 cell line (human […] transfected HEK cell line), DMEM (FBS) medium, positive control LY487379 (purchased from sigma; CAS: to 352317-17-1)
mGluR2, sequence (Q14416 19-872): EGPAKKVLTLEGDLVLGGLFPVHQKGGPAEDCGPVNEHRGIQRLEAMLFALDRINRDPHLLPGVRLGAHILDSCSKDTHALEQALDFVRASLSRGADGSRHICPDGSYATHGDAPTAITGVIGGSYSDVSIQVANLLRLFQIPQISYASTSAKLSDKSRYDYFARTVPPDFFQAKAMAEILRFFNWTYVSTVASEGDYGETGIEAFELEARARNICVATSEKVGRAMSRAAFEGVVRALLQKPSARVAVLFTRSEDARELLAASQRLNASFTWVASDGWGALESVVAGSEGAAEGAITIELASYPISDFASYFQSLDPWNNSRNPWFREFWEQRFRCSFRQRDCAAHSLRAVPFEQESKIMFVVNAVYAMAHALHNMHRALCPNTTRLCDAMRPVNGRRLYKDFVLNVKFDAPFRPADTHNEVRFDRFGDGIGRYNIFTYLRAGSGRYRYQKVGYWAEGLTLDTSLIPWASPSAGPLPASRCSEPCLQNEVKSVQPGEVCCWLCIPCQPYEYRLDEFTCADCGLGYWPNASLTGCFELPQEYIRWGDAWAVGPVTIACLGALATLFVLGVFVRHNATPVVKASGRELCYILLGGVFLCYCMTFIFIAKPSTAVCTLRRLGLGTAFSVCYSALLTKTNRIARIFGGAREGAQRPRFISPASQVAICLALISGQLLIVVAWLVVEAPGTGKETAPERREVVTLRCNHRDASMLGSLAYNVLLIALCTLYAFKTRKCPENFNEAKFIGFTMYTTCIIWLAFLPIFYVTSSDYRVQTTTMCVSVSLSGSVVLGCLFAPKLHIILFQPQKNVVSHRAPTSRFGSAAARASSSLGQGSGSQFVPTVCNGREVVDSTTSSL
Experimental instrument: FLIPR Tetra real-time fluorescence imaging analysis system
Experimental method: HDB Fluo-8 calcium fluorescence detection method
Experimental principle: HDB Fluo-8 calcium ion fluorescence detection method is a fast, simple and reliable fluorescence detection method of intracellular calcium concentration changes. The Fluo 8-AM fluorescent dye is an acetyl methyl ester derivative of Fluo 8 which can easily penetrate into the cell membrane by culture. The fluorescent dye in the cell will be hydrolyzed by intracellular esterase, the resulting Fluo 8 as a polar molecule, cannot easily pass through the lipid bimolecular membrane, and will be retained in the cell, and combine with calcium (Ca^2+) to produce fluoresces.
Cells expressing GPCR receptor protein (mGluR2) were first calibrated with a calcium ion sensitive fluorescent probe and then stimulated with the compound. After stimulation, the receptor activates the calcium ion mobilization, and the fluorescent probe captures the calcium ion to induce the fluorescence signal. The signal can be read by a fluoroscopy plate. The fluorescent plate reader contains a sample addition for compound addition, thus enabling the change of the fluorescence value of the compound be read in real time.

In another series the test system is ICR mice. In words: Mouse swimming depression test. In kind it is in vivo. The settings on record: for non-movement time (%) Mean ± SEM: orally, 1 hour before test. On the procedure:
Experiment objectives: to observe the effect of the test compound on the depressive status of mice
Experimental animals: ICR mice, 20-28 g, both male and female
Experimental equipment: plexiglass tube: cylindrical, 25 cm high, 15 cm inner diameter
Sample treatment: The test compounds were ground with 1% CMC (sodium carboxymethyl cellulose) to prepare a homogeneous solution. In vivo dose was 5 mg/kg, 10 mg/kg and 20 mg/kg, the compound was orally administrated at 0.1 ml/10 g volume/body weight. Positive control drugs (amitriptyline and fluoxetine) were dissolved with 0.9% saline, in vivo dose was 10 mg/kg, intraperitoneal injected at 0.1 ml/10 g volume/body weight. (Note: mice were given the compound after fasted for 8 hours without water-fasted.)
Experimental principle: The mouse is placed in a limited space which can not escape to swim, thus inducing animals to non-movement state which reflects the animal's desperate behavior.
Experimental Methods: mice were grouped randomly, 15 minutes swimming depression was modeled at the first day, and equivalent mice were selected. The second day of the test, 1 hour after the animals were orally administered the compound (0.5 hours after intraperitoneal injection) and then the animals were put in water to record the non-movement time in the later 4 min of 6 min.

Some results are limits rather than exact numbers.

The values below come from patent US10800776B2, “Fluorine-containing triazolopyridine, and manufacturing method, pharmaceutical composition, and application thereof” (SHANGHAI INSTITUTE OF MATERIA MEDICA, CHINESE ACADEMY OF …, priority 2016, dated 2020).

For orientation: IC50 means the concentration that gives 50% inhibition. Read a low IC50 as greater potency in that assay. As usually defined, the inhibition is the relative decrease from the control value, in per cent. The term EC50 denotes the concentration at which the effect is half-maximal. Regarding `FC1(F)CC1Cc1nnc2cc(-c3ccc4c(c3)OCO4)ccn12` (centres unmarked) [Compound 35, 7-(Benzo[d][1,3]dioxol-5-yl)-3-((2,2-difluorocyclopropyl)methyl)-[1,2,4]triazole [4,3-a]pyridine], in the series on C57BL/6 mice, the “Central area dwell time (s) Mean ± SEM” value turned out to be 102.6 ± 20.8 s, the “Central area traveling distance percentage (%) Mean ± SEM” value turned out to be 15.41 ± 1.99% and the “Total moving distance (cm) Mean ± SEM” value came to 3491.2 ± 650.6 cm. The compound also registered an IC50 against hERG potassium channel (hERG patch clamp) greater than 40 µM. In addition, the inhibition at 40 µM on hERG potassium channel (human, hERG, at maximum concentration 40 μM, read-out: Inhibition rate (%)) was determined as 40%. The EC50 at mGluR2 stood at 108 nM.
Regarding `COC(=O)c1ccc(-c2ccn3c(CC4CC4(F)F)nnc3c2Cl)c(F)c1` (centres unmarked) [Compound 45, Methyl 4-(8-Chloro-3-((2,2-difluorocyclopropyl)methyl)-[1,2,4]triazole[4,3-a]pyridin-7-yl)-3-fluorobenzoate], in the series on C57BL/6 mice, the “Central area dwell time (s) Mean ± SEM” value worked out at 110 ± 13.0 s, the “Central area traveling distance percentage (%) Mean ± SEM” value is reported as 19.39 ± 1.63 % and the “Total moving distance (cm) Mean ± SEM” value came to 5043.2 ± 457.5 cm. Besides, the “central region's range of motion” value in the series on C57BL/6 mice (dosage of 30 mg/kg) is reported as “significantly increase”. Also, the EC50 on mGluR2 turned out to be 87.9 nM. Also, in the series on ICR mice (5 mg/kg), the “non-movement time (%) Mean ± SEM” value was determined as 63.99 ± 11.00%. Besides, in the series on ICR mice (10 mg/kg), the “non-movement time (%) Mean ± SEM” value is listed as 34.88 ± 6.57%. In addition, the “non-movement time (%) Mean ± SEM” value with ICR mice (20 mg/kg) is reported as 56.29 ± 17.56%. In addition, in the series with ICR mice (mouse, in vivo), the “"no movement time" of swimming in mice (in words)” value is “effectively shorten” and the antidepressant effect result was “significant antidepressant effect”.
Consider `FC1(F)CC1Cc1nnc2c(Cl)c(-c3ccc4c(c3)OCO4)ccn12` (centres unmarked) [Compound 50, 7-(Benzo[d][1,3]dioxol-5-yl)-8-chloro-3-((2,2-difluorocyclopropyl)methyl)-[1,2,4]triazole [4,3-a]pyridine], for which, in the series on C57BL/6 mice, the “Central area dwell time (s) Mean ± SEM” value turned out to be 81.1 ± 10.2 s, the “Central area traveling distance percentage (%) Mean ± SEM” value is on record as 13.91 ± 0.96% and the “Total moving distance (cm) Mean ± SEM” value came out at 4407.2 ± 390.5 cm. Moreover, on mGluR2, the EC50 came to 62.3 nM. Moreover, the “non-movement time (%) Mean ± SEM” value in the series with ICR mice (5 mg/kg) is listed as 84.06 ± 10.65%. The “non-movement time (%) Mean ± SEM” value in the series on ICR mice (10 mg/kg) came out at 52.10 ± 15.86%. Besides, the “non-movement time (%) Mean ± SEM” value in the series with ICR mice (20 mg/kg) was determined as 57.08 ± 17.80%.
